Results on four compounds are retold here after patent US20250195645A1, “COMBINATION OF MULTISPECIFIC MOLECULE AND IMMUNE CHECKPOINT INHIBITOR” (DAIICHI SANKYO COMPANY, LIMITED, priority 2022, published 2025).

For assay [1], the system named is human lung adenocarcinoma cell line NCI-H522. Nature of the assay: In vivo combinatorial effect of NYZ-1010 and pembrolizumab, human T cell transfer model. The conditions noted are these: 53 days after tumor inoculation; NSG mice; NYZ-1010 0.01 mg/kg Days 25, 32, 39; pembrolizumab 10 mg/kg Days 28, 32, 35, 39, 42. How it is done: Tumor growth inhibition (%) was calculated according to the following equation.

Assay [2] deals with human synovial sarcoma cell line SW982. Nature of the assay: In vivo combinatorial effect of NYZ-1010 and doxorubicin, human T cell transfer model. The conditions noted are these: NSG mice. How it is done:
The administration was carried out on Day 41 (NYZ-1010) or on Days 40 and 47 (doxorubicin). Tumor growth inhibition (%) and change from baseline (%) were calculated according to the expressions given below.

Assay [3] relates to human lung adenocarcinoma cell line NCI-H522. Nature of the assay: In vivo combinatorial effect of NYZ-1010 and durvalumab, human T cell transfer model. The conditions noted are these: NSG mice.
Assay [4] concerns human esophageal cancer cell line OE-19. In words: In vivo combinatorial effect of NYZ-1010 and sacituzumab govitecan-hziy, human T cell transfer model. Particulars: NSG mice. On the procedure: The administration was carried out on Day 7 (NYZ-1010) or on days 6 and 13 (sacituzumab govitecan-hziy). Tumor growth inhibition (%) and change from baseline (%) were calculated according to the expressions given below.

For pembrolizumab: anti-PD-1 antibody, the “TGI (tumor growth inhibition)” value in assay [1] worked out at 3.1%.
For `COc1cccc2c1C(=O)c1c(O)c3c(c(O)c1C2=O)C[C@@](O)(C(=O)CO)C[C@@H]3O[C@H]1C[C@H](N)[C@H](O)[C@H](C)O1` [doxorubicin], the “TGI (tumor growth inhibition)” value in assay [2] (55 days after inoculation, NYZ-1010 0.01 mg/kg Day 41, doxorubicin 2.5 mg/kg Days 40 and 47) is 25.6%. Moreover, in assay [2] (group average, tumor volume on Day 55 vs Day 40 baseline), the “Change from baseline (%)” value is reported as 214.1 (n = 5) %.
With durvalumab: anti-PD-L1 antibody, in assay [3] (49 days after inoculation, NYZ-1010 0.02 mg/kg Days 25 and 32, durvalumab 10 mg/kg intraperitoneally Days 28, 32, 35, 39), the “TGI (tumor growth inhibition)” value is given as −0.8%. Moreover, the “Change from baseline (%)” value in assay [3] (group average, tumor volume on Day 49 vs Day 24 baseline) is listed as 204.7 (n = 5) %.
As for sacituzumab govitecan-hziy, in assay [4] (21 days after inoculation, NYZ-1010 0.01 mg/kg Day 7, sacituzumab govitecan-hziy 25 mg/kg days 6 and 13), the “TGI (tumor growth inhibition)” value is recorded as 35.4%. In addition, the “Change from baseline (%)” value in assay [4] (group average, tumor volume on Day 21 vs Day 6 baseline) is recorded as 1027.8 (n = 5) %.
